Measured values: article PMC4434909, “In vitro properties of designed antimicrobial peptides that exhibit potent antipneumococcal activity and produces synergism in combination with penicillin” (Scientific Reports, 2015)
Where “and” joins values, the source holds several entries; their conditions need not be identical. Equal entries are not always repeated. Where two headings read alike, the source gives them in different places. Where no end group is shown, it is not given here.

Columns and labels:
[1] = test system: human erythrocytes; test: Hemolytic activity; assay type: cell-based
Procedure: Hemolytic assay was performed as described. Freshly drawn human erythrocytes were rinsed three times with PBS and resuspended in PBS to 4% (v/v). One hundred microliters of the suspension was added to 96-well microtiter plate containing equal volume of peptides to give final concentrations of peptides encompassing the range of 1.96–250 μg/ml. PBS and 0.1% (v/v) Triton-X 100 were used as 0% and 100% hemolytic control respectively. Plates were incubated at 37°C for 1 hr. Subsequently, the plate was centrifuged and the supernatant was transferred to a new plate. The release of hemoglobin in the supernatant was monitored at absorbance of 450 nm using Glomax Multidetection system (Promega, USA). Results were pooled from three independent experiments and expressed as mean ± SD. HC10 and HC50 were defined as the peptide concentrations causing 10% and 50% hemolysis on human erythrocytes, respectively. Hmax was the percentage hemolysis observed at the maximum concentration as defined throughout this study (all peptides 250 μg/ml, PEN 4 μg/ml).

[2] = test system: NL20 cell line; test: Cytotoxicity against human cell lines (CellTiter 96 AQueous); assay type: cell-based
Procedure: (§1) Both the NL20 human lung bronchial normal epithelial cell line and the A549 human lung alveolar adenocarcinoma epithelial cell line were used for cell cytotoxicity tests. Besides investigating the cytotoxicity of peptides, differences in cell viability between the two cell lines can be used to evaluate the cell line selectivity and to assess potential anticancer potential of the peptides. NL20 cell line was grown in Ham's F12 medium and A549 cell line was grown in Roswell Park Memorial Institute medium. Both media were supplemented with fetal bovine serum to 10% (v/v) as growth medium or 2% (v/v) as maintenance medium in cell cytotoxicity testing. The assay was performed as described by Lee et al.[26]. NL20 cells was seeded overnight at 3 × 10^4 cells/well in 96-well cell culture-treated flat bottom microtiter plate and treated with serial dilutions of peptide at a final concentration of 1.95–250 μg/ml. PEN was tested from 0.03–4 μg/ml, the same range used to classify the susceptibility of pneumococcal isolates in this study. Test using A549 cells followed the same procedures with 1 × 10^4 cells/well. Plates were incubated at 37°C under 5% CO2 for 24, 48, and 72 hrs. Cell viability was detected by using CellTiter 96® AQueous Non-Radioactive Cell Proliferation assay (Promega, USA) and the colorimetric changes were read with Glomax multidetection system (Promega, USA) at OD 490 nm. Results were pooled from three independent experiments and expressed as mean ± SD. […] Imax was the percentage of cell viable treated with peptides/PEN at the maximum concentration as defined throughout this study (all peptides 250 μg/ml, PEN 4 μg/ml).

[3] = test system: A549 cell line; test: as above; assay type: cell-based
Procedure: as §1

[4] = test system: MRSA; assay type: cell-based, methicillin-resistant S. aureus
Excerpt: All bacterial strains were obtained from Department of Medical Microbiology, University of Malaya. Clinical isolates were previously obtained from University of Malaya Medical Centre and maintained in the laboratory. Sheep blood agar was used for pneumococcal cultivation purpose. Nutrient agar was used for cultivating E. coli ATCC 25922, S. aureus ATCC 25923, and P. aeruginosa ATCC 15442, Acinetobacter baumanii ATCC 15308, and one clinical isolate for each MRSA, E. cloacae, Citrobacter spp., and K. pneumoniae. For antimicrobial testing, Mueller-Hinton agar (MHA) and cationically-adjusted MHB (CAMHB) were prepared according to the Clinical and Laboratory Standard Institute guidelines. MHA for S. pneumoniae was supplemented with 5% (v/v) defibrinated sheep blood and 5% laked horse blood for CAMHB. All bacterial cultures were stored in multiple vials in brain heart infusion broth supplemented with 10% (v/v) glycerol at −80°C to avoid repeated freeze-thawed cycles on the cells. All freeze-stocked strains were passaged twice prior to experimentation.
Procedures were performed to determine the MIC of peptides according to the CLSI guidelines[21] against 60 pneumococcal isolates which consisted of 20 isolates each for PRSP, PISP, and PSSP. Strains were grown for 18–24 hrs at 37°C under 5% CO2. Direct suspension of the colonies were made in CAMHB and adjusted to OD625 0.08–0.1 which corresponds to 1 ~ 2 × 10^8 CFU/ml followed by serial ten-fold dilutions to give 1 × 10^6 CFU/ml. Fifty microliters of bacterial suspension was then aliquoted to 96-well round bottom microtiter plates containing equal volume of serially diluted peptides to give final concentrations of peptides encompassing the range of 1.96–250 μg/ml. […] The plates were incubated for 18–24 hrs at 37°C under 5% CO2. MIC was read as the concentration of peptide producing complete inhibition on the visible growth of the test organism. Results were pooled from three independent experiments. MIC range was defined as the range of concentrations where the peptides produce detectable antimicrobial activity. Effective percentage (EP) was the proportion of pneumococcal isolates inhibited within the MIC range. Since the isolates tested were obtained prior to 2008 where major revision in antibiotic susceptibility breakpoints were introduced, thus the pneumococci were defined according to the PEN susceptibility breakpoint (prior 2008) which corresponds to the PEN (oral penicillin V) breakpoint of the revised criteria.
The broad spectrum antibacterial activity of the peptides against a panel of eight clinically important bacteria was also determined, this includes S. aureus ATCC 25923, E. coli ATCC 25922, P. aeruginosa ATCC 15442, A. baumanii ATCC 15308, and one clinical isolate each for MRSA, E. cloacae, Citrobacter spp., and K. pneumoniae.

[5] = test system: PSSP; assay type: cell-based, Streptococcus pneumoniae
Procedure: (§2) This assay was performed to evaluate the killing kinetics of peptides. One PRSP, PISP, and PSSP isolate were each grown and prepared to 5 × 10^6 CFU/ml. Each isolate in CAMHB was challenged with peptides at two times the respective MIC values. At the indicated time intervals (0, 30, 60, 120, 150, 180, 210, and 240 min; “0” indicate pretreatment), 10 μl of suspension was removed and immediately serially diluted in cold phosphate-buffered saline to arrest further reaction before spread-plated on MHA to obtain viable colony counts. The percentage cell recovered was calculated by dividing the surviving CFU of the treated cells over the surviving CFU of the untreated control cells at the respective time points. Results were pooled from three independent experiments and expressed as mean ± standard deviation (SD).

[6] = test system: PRSP, PISP, and PSSP; assay type: cell-based, Streptococcus pneumoniae; conditions: for CFU recovered (viability), all three groups of pneumococci: 5 × 10^6 CFU/ml in CAMHB, plate count, relative to untreated control
Procedure: as §2

[7] = concentration reducing cell viability to 50%, 24 hrs, 2% FBS medium, OD 490 nm, mean ± SD of three independent experiments
[8] = concentration reducing cell viability to 50%, 48 hrs, 2% FBS medium, OD 490 nm, mean ± SD of three independent experiments
[9] = concentration reducing cell viability to 50%, 72 hrs, 2% FBS medium, OD 490 nm, mean ± SD of three independent experiments
[10] = percentage cell viability at the highest concentration (peptides 250 μg/ml; PEN 4 μg/ml), 24 hrs, mean ± SD
[11] = percentage cell viability at the highest concentration (peptides 250 μg/ml; PEN 4 μg/ml), 48 hrs, mean ± SD

| Substance | HC10 [1] | HC50 ([1]; red cells of human, 1 h) | Imax, NL20 cell line, 24 hrs [2] | Imax, NL20 cell line, 48 hrs [2] | Imax, NL20 cell line, 72 hrs [2] | IC50, NL20 cell line, 24 hrs ([2]; 24 h) | IC50, NL20 cell line, 48 hrs ([2]; 48 h) | IC50, NL20 cell line, 72 hrs ([2]; 72 h) | IC50, A549 cell line, 24 hrs ([3]; 24 h) | IC50, A549 cell line, 48 hrs ([3]; 48 h) | IC50, A549 cell line, 72 hrs ([3]; 72 h) | MIC, MRSA ([4]; methicillin-resistant) | difference in killing kinetics over PEN, PSSP [5]; 2 | difference in killing kinetics over PEN, average [6]; 2 | CFU recovered (viability), all three groups of pneumococci ([6]; 30 min post treatment, 2× MIC) | also measured |
| --- | --- | --- | --- | --- | --- | --- | --- | --- | --- | --- | --- | --- | --- | --- | --- | --- |
| GLFDIWAWWRWRR-NH2 [DM2] | 114.3 µg/mL | >250 µg/mL | 64.3 ± 7.0% | 53.3 ± 9.1% | 46.8 ± 4.0% | >250 µg/mL | >250 µg/mL | 241.5 ± 9.0 µg/mL | > 250 µg/mL | 197.7 µg/mL | 165.0 µg/mL | 62.5 µg/mL | 54.4% | 61.3% | < 6.0% | – |
| GLFDIWKKLRWRR-NH2 [DM5] | > 250 µg/mL | >250 µg/mL | 7.3 ± 2.4% | 8.3 ± 4.2% | 9.7 ± 5.4% | 179.2 ± 3.8 µg/mL | 188.2 ± 4.9 µg/mL | 191.7 ± 3.5 µg/mL | 97.0 ± 9.8 µg/mL | 106.3 ± 15.7 µg/mL | 101.7 ± 9.5 µg/mL | 62.5 µg/mL | 36.5% | 44.4% | – | IC50 of NL20 cells higher than A549 cells by, 24 hrs ([2]; 24 h): 82.2 µg/mL; IC50 of NL20 cells higher than A549 cells by, 48 hrs ([2]; 48 h): 81.9 µg/mL; IC50 of NL20 cells higher than A549 cells by, 72 hrs ([2]; 72 h): 90.0 µg/mL |
| GLFDIWKKWRWRR-NH2 [DM4] | – | – | – | – | – | – | – | – | – | – | – | – | – | – | – | HC10 ([1]; concentration causing 10% hemolysis, 4% (v/v) erythrocytes in PBS, 37°C 1 hr, absorbance 450 nm, mean ± SD of three independent experiments): > 250 µg/mL; HC50 ([1]; concentration causing 50% hemolysis, 4% (v/v) erythrocytes in PBS, 37°C 1 hr, absorbance 450 nm, three independent experiments): >250 µg/mL; Hmax ([1]; percentage hemolysis at the highest concentration tested (all peptides 250 μg/ml; PEN 4 μg/ml), mean ± SD of three independent experiments): < 1.0% and 0.6 ± 0.1%; IC50, NL20 cell line, 24 hrs [2, 7]: 160.2 ± 11.8 µg/mL; IC50, NL20 cell line, 48 hrs [2, 8]: 167.3 ± 5.9 µg/mL; IC50, NL20 cell line, 72 hrs [2, 9]: 205.0 ± 7.0 µg/mL; IC50 of NL20 cells higher than A549 cells by, 24 hrs ([2]; difference IC50 NL20 minus IC50 A549, 24 hrs): 66.9 µg/mL; IC50 of NL20 cells higher than A549 cells by, 48 hrs ([2]; difference IC50 NL20 minus IC50 A549, 48 hrs): 64.3 µg/mL; IC50 of NL20 cells higher than A549 cells by, 72 hrs ([2]; difference IC50 NL20 minus IC50 A549, 72 hrs): 97.5 µg/mL; Imax, NL20 cell line, 24 hrs [2, 10]: 6.9 ± 6.8%; Imax, NL20 cell line, 48 hrs [2, 11]: 5.9 ± 2.5%; Imax, NL20 cell line, 72 hrs ([2]; percentage cell viability at the highest concentration (peptides 250 μg/ml; PEN 4 μg/ml), 72 hrs, mean ± SD): 30.2 ± 2.9%; IC50, A549 cell line, 24 hrs [3, 7]: 93.3 ± 5.1 µg/mL; IC50, A549 cell line, 48 hrs [3, 8]: 103.0 ± 17.5 µg/mL; IC50, A549 cell line, 72 hrs [3, 9]: 107.5 ± 16.3 µg/mL; Imax, A549 cell line, 24 hrs [3, 10]: 8.5 ± 3.8%; Imax, A549 cell line, 48 hrs [3, 11]: 8.9 ± 1.4%; MIC, MRSA ([4]; Gram-positive, clinical isolate, broth microdilution, CAMHB, peptides 1.96–250 μg/ml): 62.5 µg/mL; difference in killing kinetics over PEN, PSSP ([5]; 30 min post treatment, 2× MIC): 30.5%; difference in killing kinetics over PEN, average ([6]; average of PRSP, PISP and PSSP, 30 min post treatment, 2× MIC): 42.4% |
| GLFDIWKWWRWRR-NH2 [DM3] | 52.7 µg/mL | >250 µg/mL | 13.3 ± 2.1% | 24.0 ± 7.6% | 12.4 ± 4.5% | 68.5 ± 11.0 µg/mL | 91.5 ± 7.6 µg/mL | 112.2 ± 8.8 µg/mL | 56.0 ± 9.3 µg/mL | 80.0 ± 1.7 µg/mL | 96.2 ± 4.4 µg/mL | 7.81 µg/mL | 57.7% | 64.6% | < 6.0% | hemolysis at the effective MIC level against S. pneumoniae ([1]; red cells of human, 1 h): ≤ 15% |
